Experimental data published in patent US20260176320A1, “MODULATORS OF G-PROTEIN COUPLED RECEPTORS” (priority 2018, published 2026).
Read-outs that look alike come from different tables or passages of the source.

How the values were obtained:
[1] = biological target: T1, GLP-1R (Homo sapiens, UniProt P43220); assay: HitHunter cAMP assay (GLP-1R); format: cell-based; settings: cAMP; for Emax: read-out: (Emax) GLP-1R
Method in brief: (§1)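 cAMP accumulation read by luminescent HitHunter immunocompetition after 30 min room-temperature agonist stimulation. Agonists tested as 22-point twofold dilutions, in duplicate, on 10,000 cells/well in HBSS containing 625 μM IBMX, 10 mM HEPES and 0.2% BSA.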

[2] = biological target: T2, GIP-R (Homo sapiens, UniProt P48546); assay: HitHunter cAMP assay (GIP-R); format: cell-based; settings: cAMP; for Emax: read-out: (Emax) GIP-R
T2 sequence (P48546 22-466): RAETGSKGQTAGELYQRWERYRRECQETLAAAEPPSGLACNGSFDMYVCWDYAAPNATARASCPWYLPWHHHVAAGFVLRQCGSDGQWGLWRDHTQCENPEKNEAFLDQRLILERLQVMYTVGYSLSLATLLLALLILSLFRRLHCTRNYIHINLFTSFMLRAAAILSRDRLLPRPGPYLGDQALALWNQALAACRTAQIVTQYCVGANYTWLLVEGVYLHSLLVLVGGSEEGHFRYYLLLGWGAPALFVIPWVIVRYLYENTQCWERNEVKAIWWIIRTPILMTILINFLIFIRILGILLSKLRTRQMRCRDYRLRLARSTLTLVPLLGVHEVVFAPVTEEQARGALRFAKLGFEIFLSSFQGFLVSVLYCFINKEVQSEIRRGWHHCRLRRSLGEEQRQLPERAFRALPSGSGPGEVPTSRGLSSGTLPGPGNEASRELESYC
Method in brief: as §1

[3] = test system: mice; assay: Glucose tolerance test (GTT); format: in vivo, mouse; settings: 24 h GTT, s.c., dose range 2-5 nmol/kg, percent of vehicle
Method: Freestyle Lite glucometer and strips; compounds to be tested; sterilized glucose solution 200 mg/ml.
Compounds were diluted in PBS from the 1 mM DMSO stocks right before injection. Body weight and baseline blood glucose level for each mouse were measured. Tails were snipped using sterile scissors; blood from tails was used to measure glucose. For 0.25 h GTT, mice were fasted for 5-6 h and injected with compound subcutaneously 15 mins before glucose injection. For 4 h GTT, mice were fasted O/N for 16 h and injected with compound subcutaneously 4 h before glucose injection. For 16 h GTT, mice were injected with compound subcutaneously 16 h before glucose injection; food was removed at the same time. For 24 h GTT, mice were injected with compound subcutaneously 24 h before glucose injection; food was removed 5-6 h before glucose injection. 20% glucose in water was prepared; the solution was sterilized by 0.2 μm-filtration. An intraperitoneal injection of glucose (2 g/kg) was given to the mouse. Continued to take blood samples from the tail. Blood glucose was measured at 10, 20, 30, 40, 60, 90, and 120 minutes after glucose injection. Between each of these time points, the mouse was returned to its cage and monitored (at least 6 replicate mice were used for each time-point). The average glucose measurements were plotted as a function of time and the area under the curve (AUC) was determined.

[4] = biological target: T1, GLP-1R; assay: PathHunter β-arrestin assay; format: cell-based
Method in brief: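 β-Arrestin recruitment measured by PathHunter enzyme-fragment luminescence, read after 3 h dark incubation at room temperature with detection solution. Beforehand, agonist in a 22-point 2-fold series was applied in duplicate for 90 min at 37 °C to 5,000 cells/well in BSA-containing (0.2%) medium.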

[5] = Table 3, read-out: EC50 GLP-1R/nM
[6] = Table 3A, read-out: EC50 GLP-1R/nM
[7] = Table 3, read-out: EC50 GIP-R/nM
[8] = Table 3A, read-out: EC50 GIP-R/nM
[9] = PathHunter β-arrestin assay, read-out: β-arrestin activity EC50

T1 sequence (P43220 24-463): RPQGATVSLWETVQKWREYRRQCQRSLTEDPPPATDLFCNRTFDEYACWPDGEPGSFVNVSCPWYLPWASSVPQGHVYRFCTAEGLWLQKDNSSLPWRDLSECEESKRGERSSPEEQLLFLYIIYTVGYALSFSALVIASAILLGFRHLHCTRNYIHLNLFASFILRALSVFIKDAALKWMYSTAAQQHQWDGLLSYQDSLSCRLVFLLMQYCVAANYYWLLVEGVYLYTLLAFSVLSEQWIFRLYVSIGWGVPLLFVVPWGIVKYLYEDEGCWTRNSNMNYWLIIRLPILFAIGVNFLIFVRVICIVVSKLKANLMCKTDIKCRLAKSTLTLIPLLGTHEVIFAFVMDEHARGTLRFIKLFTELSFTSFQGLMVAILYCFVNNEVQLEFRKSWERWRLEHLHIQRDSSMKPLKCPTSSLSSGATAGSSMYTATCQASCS

Compound CCCCCCCCCCCCCCCC(=O)N[C@@H](CCC(=O)NCCCC[C@H](NC(=O)[C@H](CO)NC(=O)[C@@H]1CCCN1C(=O)[C@@H]1CCCN1C(=O)[C@@H]1CCCN1C(=O)[C@H](C)NC(=O)CNC(=O)[C@H](CO)NC(=O)[C@H](CO)NC(=O)[C@@H]1CCCN1C(=O)CNC(=O)CNC(=O)[C@H](C)NC(=O)[C@H](CC(C)C)NC(=O)[C@H](CC(C)C)NC(=O)[C@H](Cc1c[nH]c2ccccc12)NC(=O)[C@H](CC(N)=O)NC(=O)[C@@H](NC(=O)[C@H](Cc1ccccc1)NC(=O)[C@H](CCC(=O)O)NC(=O)C(C)(C)NC(=O)[C@H](C)NC(=O)[C@H](C)NC(=O)[C@H](CCC(N)=O)NC(=O)[C@H](CCCCN)NC(=O)[C@H](CC(=O)O)NC(=O)[C@H](CC(C)C)NC(=O)[C@H](Cc1ccc(O)cc1)NC(=O)[C@@H](NC(=O)[C@H](CO)NC(=O)[C@H](Cc1ccc(O)cc1)NC(=O)[C@H](CC(=O)O)NC(=O)[C@H](CO)NC(=O)[C@@H](NC(=O)[C@H](Cc1ccccc1)NC(=O)[C@@H](NC(=O)CNC(=O)[C@H](CCC(=O)O)NC(=O)CSCC(=O)NCCN1CCC(C)C1=O)[C@@H](C)O)[C@@H](C)O)[C@@H](C)CC)C(C)C)C(N)=O)C(=O)O (single isomer, unassigned) [Compound 68] has an Emax ([1]; Table 3) of 109%, an EC50 [1, 5] of 0.1 to 1 nM and an Emax ([1]; Table 3A) of 109%. It also gave an EC50 [1, 6] of 0.1 to 1 nM, an Emax ([2]; Table 3) of 87% and an EC50 [2, 7] of 0.1 to 1 nM. For the same compound, the Emax ([2]; Table 3A) was 87%, the EC50 [2, 8] was 0.1 to 1 nM and the AUC score [3] was 2 (AUC score 2 = 26-50%). It also gave an EC50 [4, 9] greater than 1000 nM.
For CCCCCCCCCCCCCCCC(=O)N[C@@H](CCC(=O)NCCCC[C@H](NC(=O)[C@H](CO)NC(=O)[C@@H]1CCCN1C(=O)[C@@H]1CCCN1C(=O)[C@@H]1CCCN1C(=O)[C@H](C)NC(=O)CNC(=O)[C@H](CO)NC(=O)[C@H](CO)NC(=O)[C@@H]1CCCN1C(=O)CNC(=O)CNC(=O)[C@H](C)NC(=O)[C@H](CC(C)C)NC(=O)[C@H](CC(C)C)NC(=O)[C@H](Cc1c[nH]c2ccccc12)NC(=O)[C@H](CC(N)=O)NC(=O)[C@@H](NC(=O)[C@H](Cc1ccccc1)NC(=O)[C@H](CCC(=O)O)NC(=O)C(C)(C)NC(=O)[C@H](C)NC(=O)[C@H](C)NC(=O)[C@H](CCC(N)=O)NC(=O)[C@H](CCCCN)NC(=O)[C@H](CC(=O)O)NC(=O)[C@H](CC(C)C)NC(=O)[C@H](Cc1ccc(O)cc1)NC(=O)[C@@H](NC(=O)[C@H](CO)NC(=O)[C@H](Cc1ccc(O)cc1)NC(=O)[C@H](CC(=O)O)NC(=O)[C@H](CO)NC(=O)[C@@H](NC(=O)[C@H](Cc1ccccc1)NC(=O)[C@@H](NC(=O)CNC(=O)[C@H](CCC(=O)O)NC(=O)CSCC(=O)NCCN1C(=O)COC1=O)[C@@H](C)O)[C@@H](C)O)[C@@H](C)CC)C(C)C)C(N)=O)C(=O)O [Compound 59], the Emax ([1]; Table 3) was 108%, the EC50 [1, 5] was less than 0.1 nM and the Emax ([1]; Table 3A) was 108%. It also gave an EC50 [1, 6] of less than 0.1 nM, an Emax ([2]; Table 3) of 31% and an EC50 [2, 7] of 1 to 10 nM. The Emax ([2]; Table 3A) was 31%, the EC50 [2, 8] was 1 to 10 nM and the AUC score [3] was 3 (AUC score 3 = 51-75%).
For CCCCCCCCCCCCCCCC(=O)N[C@@H](CCC(=O)NCCCC[C@H](NC(=O)[C@H](CO)NC(=O)[C@@H]1CCCN1C(=O)[C@@H]1CCCN1C(=O)[C@@H]1CCCN1C(=O)[C@H](C)NC(=O)CNC(=O)[C@H](CO)NC(=O)[C@H](CO)NC(=O)[C@@H]1CCCN1C(=O)CNC(=O)CNC(=O)[C@H](C)NC(=O)[C@H](CC(C)C)NC(=O)[C@H](CC(C)C)NC(=O)[C@H](Cc1c[nH]c2ccccc12)NC(=O)[C@H](CC(N)=O)NC(=O)[C@@H](NC(=O)[C@H](Cc1ccccc1)NC(=O)[C@H](CCC(=O)O)NC(=O)C(C)(C)NC(=O)[C@H](C)NC(=O)[C@H](C)NC(=O)[C@H](CCC(N)=O)NC(=O)[C@H](CCCCN)NC(=O)[C@H](CC(=O)O)NC(=O)[C@H](CC(C)C)NC(=O)[C@H](Cc1ccc(O)cc1)NC(=O)[C@@H](NC(=O)[C@H](CO)NC(=O)[C@H](Cc1ccc(O)cc1)NC(=O)[C@H](CC(=O)O)NC(=O)[C@H](CO)NC(=O)[C@@H](NC(=O)[C@H](Cc1ccccc1)NC(=O)[C@@H](NC(=O)CNC(=O)[C@H](CCC(=O)O)NC(=O)C(C)(C)CC(=O)NCCN1CCOCC1=O)[C@@H](C)O)[C@@H](C)O)[C@@H](C)CC)C(C)C)C(N)=O)C(=O)O [Compound 244], the Emax ([1]; Table 3A) was 100%, the EC50 [1, 6] was less than 0.1 nM and the Emax ([2]; Table 3A) was 50%. It also gave an EC50 [2, 8] of 1 to 10 nM and an EC50 [4, 9] of 10 to 1000 nM.
Compound CCCCCCCCCCCCCCCC(=O)N[C@@H](CCC(=O)NCCCC[C@H](NC(=O)[C@H](CO)NC(=O)[C@@H]1CCCN1C(=O)[C@@H]1CCCN1C(=O)[C@@H]1CCCN1C(=O)[C@H](C)NC(=O)CNC(=O)[C@H](CO)NC(=O)[C@H](CO)NC(=O)[C@@H]1CCCN1C(=O)CNC(=O)CNC(=O)[C@H](C)NC(=O)[C@H](CC(C)C)NC(=O)[C@H](CC(C)C)NC(=O)[C@H](Cc1c[nH]c2ccccc12)NC(=O)[C@H](CC(N)=O)NC(=O)[C@@H](NC(=O)[C@H](Cc1ccccc1)NC(=O)[C@H](CCC(=O)O)NC(=O)C(C)(C)NC(=O)[C@H](C)NC(=O)[C@H](C)NC(=O)[C@H](CCC(N)=O)NC(=O)[C@H](CCCCN)NC(=O)[C@H](CC(=O)O)NC(=O)[C@H](CC(C)C)NC(=O)[C@H](Cc1ccc(O)cc1)NC(=O)[C@@H](NC(=O)[C@H](CO)NC(=O)[C@H](Cc1ccc(O)cc1)NC(=O)[C@H](CC(=O)O)NC(=O)[C@H](CO)NC(=O)[C@@H](NC(=O)[C@H](Cc1ccccc1)NC(=O)[C@@H](NC(=O)CNC(=O)[C@H](CCC(=O)O)NC(=O)CCNC(=O)CCN1CCCC1=O)[C@@H](C)O)[C@@H](C)O)[C@@H](C)CC)C(C)C)C(N)=O)C(=O)O [Compound 265] has an Emax ([1]; Table 3A) of 100%, an EC50 [1, 6] of less than 0.1 nM and an Emax ([2]; Table 3A) of 80%. The EC50 [2, 8] was 0.1 to 1 nM and the EC50 [4, 9] was less than 10 nM.
CCCCCCCCCCCCCCCC(=O)N[C@@H](CCC(=O)NCCCC[C@H](NC(=O)[C@H](CO)NC(=O)[C@@H]1CCCN1C(=O)[C@@H]1CCCN1C(=O)[C@@H]1CCCN1C(=O)[C@H](C)NC(=O)CNC(=O)[C@H](CO)NC(=O)[C@H](CO)NC(=O)[C@@H]1CCCN1C(=O)CNC(=O)CNC(=O)[C@H](C)NC(=O)[C@H](CC(C)C)NC(=O)[C@H](CC(C)C)NC(=O)[C@H](Cc1c[nH]c2ccccc12)NC(=O)[C@H](CC(N)=O)NC(=O)[C@@H](NC(=O)[C@H](Cc1ccccc1)NC(=O)[C@H](CCC(=O)O)NC(=O)C(C)(C)NC(=O)[C@H](C)NC(=O)[C@H](C)NC(=O)[C@H](CCC(N)=O)NC(=O)[C@H](CCCCN)NC(=O)[C@H](CC(=O)O)NC(=O)[C@H](CC(C)C)NC(=O)[C@H](Cc1ccc(O)cc1)NC(=O)[C@@H](NC(=O)[C@H](CO)NC(=O)[C@H](Cc1ccc(O)cc1)NC(=O)[C@H](CC(=O)O)NC(=O)[C@H](CO)NC(=O)[C@@H](NC(=O)[C@H](Cc1ccccc1)NC(=O)[C@@H](NC(=O)CNC(=O)[C@H](CCC(=O)O)NC(=O)CSCC(=O)NCCn1ccc(C)cc1=O)[C@@H](C)O)[C@@H](C)O)[C@@H](C)CC)C(C)C)C(N)=O)C(=O)O [Compound 285] was tested, and the EC50 ([1]; EC50 GLP-1R/nM, Table 3A) was less than 0.1 nM, the Emax ([1]; Table 3A) was 99% and the EC50 ([2]; EC50 GIP-R/nM, Table 3A) was 0.1 to 1 nM. For the same compound, the Emax ([2]; Table 3A) was 97% and the EC50 [4] was greater than 1000 nM.
